According to PMC11954305, “Generate what you can make: achieving in-house synthesizability with readily available resources in de novo drug design” (Journal of Cheminformatics, 2025):

Target: T1, monoglyceride lipase (MGLL) (Homo sapiens, UniProt Q99685)
T1 construct: enzyme source only in Supplementary section D
T1 sequence (Q99685 1-303): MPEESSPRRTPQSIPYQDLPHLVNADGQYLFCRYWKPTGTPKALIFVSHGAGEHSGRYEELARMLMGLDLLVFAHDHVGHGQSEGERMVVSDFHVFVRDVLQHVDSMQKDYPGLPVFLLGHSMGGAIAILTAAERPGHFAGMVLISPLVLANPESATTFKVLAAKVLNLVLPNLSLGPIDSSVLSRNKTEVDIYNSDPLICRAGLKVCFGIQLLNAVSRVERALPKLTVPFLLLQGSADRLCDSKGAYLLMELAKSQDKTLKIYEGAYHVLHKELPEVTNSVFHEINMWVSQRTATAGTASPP
Experiment: natural substrate assay, residual MGLL activity
Conditions: enzyme preparation and conditions only in Supplementary section D

| IC50 [µM] | Structure (SMILES) |
| --- | --- |
| 1 | O=C(OC(C(F)(F)F)C(F)(F)F)N1CCN(C2CCCCC2)CC1 [compound 1, Compound 1] |
| ~100 | O=C(N1CCCC(c2ccc(F)cc2)C1)n1nnc2ccccc21 (stereo not drawn) [compound 2] |
| ~100 | O=C(c1nccs1)N1CCN(C(c2ccccc2)c2ccccc2)CC1 [compound 3] |
